Results: patent US7781393B2, “Methods for inhibiting tumor cell growth” (Dana-Farber Cancer Institute, Inc., priority 2004, dated 2010)

What was measured:
Type in all cases: cell-based, human
[1] = tested on: VEGF secretion by myeloma cells and BMSCs; experiment: VEGF ELISA, MM cells and BMSCs alone and in co-culture; settings: 500 nM for 24 hrs
Procedure: Flow cytometric analyses for IGF-1R, and IGF-2R were performed as previously described on a EPICS-XL-MCL flow cytometer (Beckman Coulter). Previously described protocols were applied for immunoblotting analyses; TRAP telomerase activity assay; 20S proteasome chymotryptic activity assay; DNA binding activity ELISAs for quantitative assessments of NF-κB and HIF-1a transcriptional activities. VEGF and IGF-1 ELISAs were performed according to manufacturer's instructions (R&D Systems, Minneapolis, Minn.).

[2] = tested on: CD138+ MM cells; experiment: Flow cytometric analysis of unpurified bone marrow mononuclear cells; settings: 500 nM, 72 hours, 20% serum; BM stromal cells not suppressed
[3] = tested on: primary MM tumor cells; experiment: MTT survival assay, short-term culture of primary MM tumor cells; settings: all primary patient samples tested
Excerpt: The dexamethasone (Dex)-sensitive parental line MM-1S and its Dex-resistant subline MM-1R cells were kindly provided by Dr Steven Rosen (Northwestern University, Chicago, Ill.); the chemo-sensitive parental MM cell line RPMI-8226/S, and its chemo-resistant sublines RPMI-8226/Dox40 (doxorubicin-resistant), RPMI-8226/MR20 (mitoxantrone-resistant), RPMI-8226/LR5 (melphalan-resistant) cells were kindly provided by Dr William Dalton (lee Moffitt Cancer Center, Tampa, Fla.); the OCI-My5 cells were provided by Dr Meissner (University of Ontario, Toronto, Canada); the EJM, LP-1, KMM1, K620, OPM-1, and OPM-2 cells were provided by Dr Leif Bergsagel; INA-6 cells were provided by Renate Burger (University of Erlangen-Nuernberg, Germany); XG-1 cells were obtained from Dr Pierfrancesco Tassone (University of Magna Grecia, Italy); NCI-H929 and U266 cells were purchased from American Type Cell Culture (ATCC); MM-1S-myrAkt and MM-1S-Bcl-2 cells were established by stable transfection of MM-1S cells with constructs encoding for constitutively active myristoylated form of Akt and for Bcl-2, respectively. […] Purity (>95%) was assessed by both morphology and flow cytometry (Becton-Dickinson FACSort, Franklin Lakes, N.J.). […]

[4] = tested on: MM-1S cells; experiment: In vitro sensitization of MM-1S cells to anti-cancer drugs; settings: ADW-742 750 nM or α-IR3 2 μg/ml for final 24 hours
Procedure: Cells were cultured in the presence of 10% FBS, and results are expressed as mean ±SD of 3 independent experiments.
(§1) Cell survival of IGF-1R inhibitor-treated cells was examined using the 3-(4,5-Dimethylthiazol-2-yl)-2,5-Diphenyltetrazolium Bromide (MTT) calorimetric assay. […] At the end of each treatment, cells were incubated with 1 mg/ml MTT for 4 hours at 37° C.; a mixture of isopropanol and 1N HCl (23:2, v/v) was then added under vigorous pipetting to dissolve the formazan crystals. Dye absorbance (A) in viable cells was measured at 570 nm, with 630 nm as a reference wavelength. Cell survival was estimated as a percentage of the value of untreated controls. All experiments were repeated at least three times, and each experimental condition was repeated at least in quadruplicate wells in each experiment.

[5] = tested on: PC-3 prostate cancer cells; experiment: MTT assay of responsiveness to IL-6; settings: co-treatment 500 nM, serum, 72 hours
Procedure: as §1

[6] = tested on: INA-6 MM cells; experiment: MTT assay of responsiveness to IL-6; settings: co-treatment 500 nM, serum, 72 hours
Procedure: as §1

[7] = tested on: HIF-1α; experiment: HIF-1α DNA binding activity ELISA
Procedure: Flow cytometric analyses for IGF-1R, and IGF-2R were performed as previously described on a EPICS-XL-MCL flow cytometer (Beckman Coulter). Previously described protocols were applied for immunoblotting analyses; TRAP telomerase activity assay; 20S proteasome chymotryptic activity assay; DNA binding activity ELISAs for quantitative assessments of NF-κB and HIF-1a transcriptional activities. VEGF and IGF-1 ELISAs were performed according to manufacturer's instructions (R&D Systems, Minneapolis, Minn.). 20S proteasome chymotryptic activity assay was performed as described [Shringarpure 2003]. The transcriptional activity of DNA binding activity of NF-κB and HIF-1α was measured as previously reported. Libermann T A, et al., . Proc Natl Acad Sci USA; 2002 99: 14374-14379; Mitsiades N. et al., 2002, 99: 4079-4086; Mitsiades N. et al., 2002; Blood 99: 4525-4530 and Mitsiades N., et al 2003 Blood; 101: 2377-2380.

Nc1ncnc2c1c(-c1cccc(OCc3ccccc3)c1)cn2[C@H]1C[C@H](CN2CCCC2)C1 [ADW-742, trans-5-(3-benzyloxy-phenyl)-7-(3-pyrrolidin-1-ylmethyl-cyclobutyl)-7H-pyrrolo[2,3-d]pyrimidin-4-ylamine]
constitutive and co-culture-induced secretion of VEGF [1]: suppresses | CD138+ population of malignant cells [2]: significant suppression | serum-induced growth of primary MM patient samples [3]: completely suppresses | sensitivity of MM-1S cells to dexamethasone ([4]; dexamethasone 0.1 μM 72 hrs): enhances the sensitivity | sensitivity of MM-1S cells to doxorubicin ([4]; doxorubicin 50 ng/mL 48 hrs): enhance the sensitivity | sensitivity of MM-1S cells to melphalan ([4]; melphalan 1 μM 48 hrs): enhance the sensitivity | responsiveness to IL-6 [5]: abrogated | responsiveness to IL-6 [6]: abrogated | IGF-1-induced HIF-1α activity [7]: suppress
